Common to all, as to format: in vivo
Test [1] concerns Alopecurus myosuroides (ALOMY). Put plainly: Example B post-emergence herbicidal test, glasshouse. The settings on record: 312 h, rate 250 g/ha, evaluated after 13 days, read-out: Post-Emergence Activity ALOMY (100=total damage to plant; 0=no damage to plant). The method, then: (§1) Seeds of a variety of test species were sown in standard soil in pots. After cultivation for one day (pre-emergence) or after 8 days cultivation (post-emergence) under controlled conditions in a glasshouse (at 24/16° C., day/night; 14 hours light; 65% humidity), the plants were sprayed with an aqueous spray solution derived from the formulation of the technical active ingredient in acetone/water (50:50) solution containing 0.5% Tween 20 (polyoxyethelyene sorbitan monolaurate, CAS RN 9005-64-5). The test plants were then grown in a glasshouse under controlled conditions in a glasshouse (at 24/16° C., day/night; 14 hours light; 65% humidity) and watered twice daily. After 13 days for pre and post-emergence, the test was evaluated (100=total damage to plant; 0=no damage to plant). Test Plants: Alopecurus myosuroides (ALOMY), Avena fatua (AVEFA), Setaria faberi (SETFA), Echinochloa crus-galli (ECHCG), Solanum nigrum (SOLNI) and Amaranthus retoflexus (AMARE)

Test [2] deals with Amaranthus retoflexus (AMARE). Described as above. The note with it: Amaranthus retroflexus, 312 h, rate 250 g/ha, evaluated after 13 days, read-out: Post-Emergence Activity AMARE (100=total damage to plant; 0=no damage to plant). The method, then:
as §1

For test [3], the system named is Avena fatua (AVEFA). The test is described as above. The note with it: 312 h, rate 250 g/ha, evaluated after 13 days, read-out: Post-Emergence Activity AVEFA (100=total damage to plant; 0=no damage to plant). How it is done: as §1
The test system of test [4] is Echinochloa crus-galli (ECHCG). The description is as above. The note with it: 312 h, rate 250 g/ha, evaluated after 13 days, read-out: Post-Emergence Activity ECHGG (100=total damage to plant; 0=no damage to plant). The method, then: as §1
In test [5] the test system is Setaria faberi (SETFA). The description is as above. The note with it: 312 h, rate 250 g/ha, evaluated after 13 days, read-out: Post-Emergence Activity SEFTA (100=total damage to plant; 0=no damage to plant). The method, then:
as §1

Test [6] relates to Alopecurus myosuroides (ALOMY). Nature of the test: Example B pre-emergence herbicidal test, glasshouse. The note with it: 312 h, rate 250 g/ha, evaluated after 13 days, 100=total damage to plant, 0=no damage to plant. How it is done:
as §1

Test [7] concerns Amaranthus retoflexus (AMARE). Described as above. The note with it: Amaranthus retroflexus, 312 h, rate 250 g/ha, evaluated after 13 days, 100=total damage to plant, 0=no damage to plant. The method, then:
as §1

The test system of test [8] is Avena fatua (AVEFA). Described as above. The settings on record: 312 h, rate 250 g/ha, evaluated after 13 days, 100=total damage to plant, 0=no damage to plant. The method, then: as §1
Test [9] relates to Echinochloa crus-galli (ECHCG). The description is as above. The note with it: Echinochloa crus-galli, 312 h, rate 250 g/ha, evaluated after 13 days, 100=total damage to plant, 0=no damage to plant, read-out: Pre-Emergence Activity ECHGG. The method, then: as §1
Test [10] deals with Setaria faberi (SETFA). Described as above. The settings on record: Setaria faberi, 312 h, rate 250 g/ha, evaluated after 13 days, 100=total damage to plant, 0=no damage to plant, read-out: Pre-Emergence Activity SEFTA. The method, then:
as §1

As for `Cc1sc(-c2ccc(Cl)cc2Cl)nc1C1C(=O)C(C)(C)C(=O)C(C)(C)C1=O` [Compound T45], the pest or weed control at 250 g/ha turned out to be 30% in test [1]; 0% in test [2]; 0% in the test on Avena fatua (AVEFA) [3]; 70% in test [4]; 70% in the test with Setaria faberi (SETFA) [5].
As to `CCc1sc(-c2cc(F)c(Cl)cc2Cl)nc1C1C(=O)C(C)(C)OC(C)(C)C1=O` [Compound T65], the pest or weed control at 250 g/ha worked out at 90% in test [1]; 0% in test [2]; 70% in the test on Avena fatua (AVEFA) [3]; 100% in test [4]; 100% in the test with Setaria faberi (SETFA) [5].
Regarding `CCc1sc(-c2ccc(Br)cc2)nc1C1C(=O)C(C)(C)OC(C)(C)C1=O` [Compound T49], the pest or weed control at 250 g/ha was found to be 60% in [6]; 0% in [7]; 20% in the test on Avena fatua (AVEFA) [8]; 60% in test [9]; 80% in the test on Setaria faberi (SETFA) [10]; 100% in test [1]. Further, the pest or weed control at 250 g/ha in test [2] came to 20%; with Avena fatua (AVEFA) [3], 100%; in [4], 100%; in the test with Setaria faberi (SETFA) [5] it was 100%.
Regarding `CCc1sc(-c2ccc(Cl)cc2)nc1C1C(=O)C2CCC(C)(O2)C1=O` (stereo not drawn) [Compound T50, 3-[2-(4-chloro-phenyl)-5-ethyl-thiazol-4-yl]-1-methyl-8-oxa-bicyclo[3.2.1]-octane-2,4-dione], the pest or weed control at 250 g/ha in test [6] was 90%; in [7] it was 0%; in the test with Avena fatua (AVEFA) [8], 90%; in test [9], 100%; in the test with Setaria faberi (SETFA) [10], 100%; in [1], 100%. The pest or weed control at 250 g/ha in test [2] was 0%; in the test on Avena fatua (AVEFA) [3], 100%; in [4], 100%; with Setaria faberi (SETFA) [5], 100%.
For the compound `Cc1sc(COc2ccc(Cl)cc2)nc1C1C(=O)C(C)(C)OC(C)(C)C1=O` [Compound T59], the pest or weed control at 250 g/ha in test [6] amounted to 0%; in test [7], 0%; with Avena fatua (AVEFA) [8], 0%; in test [9], 0%; with Setaria faberi (SETFA) [10] it was 0%; in test [1] it was 30%. For the same compound, the pest or weed control at 250 g/ha in test [2] is 0%; in the test with Avena fatua (AVEFA) [3] it was 0%; in test [4] it was 70%; in the test with Setaria faberi (SETFA) [5], 30%.
Regarding `Cc1sc(-c2ccc(Cl)c(F)c2)nc1C1C(=O)C(C)(C)OC(C)(C)C1=O` [Compound T22], the pest or weed control at 250 g/ha was 70% in [6]; 0% in test [7]; 20% with Avena fatua (AVEFA) [8]; 90% in [9]; 100% in the test on Setaria faberi (SETFA) [10]; 100% in test [1]. Moreover, the pest or weed control at 250 g/ha in test [2] amounted to 0%; with Avena fatua (AVEFA) [3] it was 90%; in [4], 100%; with Setaria faberi (SETFA) [5], 100%.
Consider `Cc1sc(-c2ccc(C(F)(F)F)cc2)cc1C1C(=O)C(C)(C)C(=O)C(C)(C)C1=O` [Compound T27], for which the pest or weed control at 250 g/ha in test [1] was found to be 20%; in test [2], 30%; in the test with Avena fatua (AVEFA) [3], 0%; in test [4], 30%; with Setaria faberi (SETFA) [5], 50%.
For the compound `Cc1sc(-c2ccc(I)cc2)nc1C1C(=O)C(C)(C)OC(C)(C)C1=O` [Compound T51], the pest or weed control at 250 g/ha in test [6] is 40%; in [7] it was 0%; with Avena fatua (AVEFA) [8] it was 80%; in test [9], 60%; in the test with Setaria faberi (SETFA) [10] it was 100%; in test [1], 100%. Also, the pest or weed control at 250 g/ha in test [2] stood at 0%; with Avena fatua (AVEFA) [3], 90%; in test [4] it was 90%; in the test with Setaria faberi (SETFA) [5], 100%.
Regarding `Cc1cnc(-c2ccc(Cl)cc2)nc1C1C(=O)C(C)(C)OC(C)(C)C1=O` [Compound T71, 4-[2-(4-chlorophenyl)-5-methylpyrimidin-4-yl]-2,2,6,6-tetramethylpyran-3,5-dione], the pest or weed control at 250 g/ha in [6] is 20%; in test [7] it was 0%; in the test with Avena fatua (AVEFA) [8], 0%; in test [9], 60%; with Setaria faberi (SETFA) [10], 50%; in [1], 20%. Also, the pest or weed control at 250 g/ha in test [2] was determined as 0%; in the test with Avena fatua (AVEFA) [3] it was 40%; in test [4], 90%; in the test on Setaria faberi (SETFA) [5], 90%.
`Cc1sc(-c2ccc(Cl)cc2F)nc1C1C(=O)C(C)(C)C(=O)C(C)(C)C1=O` [Compound T9]: the pest or weed control at 250 g/ha was found to be 0% in [6]; 0% in test [7]; 0% with Avena fatua (AVEFA) [8]; 20% in [9]; 40% in the test with Setaria faberi (SETFA) [10]; 90% in test [1]. The pest or weed control at 250 g/ha in [2] came to 0%; in the test on Avena fatua (AVEFA) [3], 40%; in test [4], 90%; with Setaria faberi (SETFA) [5], 80%.
Take `Cc1sc(-c2ccc(OC(F)F)cc2)nc1C1C(=O)C(C)(C)OC(C)(C)C1=O` [Compound T60]: the pest or weed control at 250 g/ha in test [6] is 40%; in test [7], 0%; in the test with Avena fatua (AVEFA) [8], 0%; in [9] it was 20%; with Setaria faberi (SETFA) [10], 70%; in [1], 50%. The pest or weed control at 250 g/ha worked out at 0% in [2], 40% with Avena fatua (AVEFA) [3], 90% in test [4] and 90% with Setaria faberi (SETFA) [5].
As to `CSc1ccc(-c2nc(C3C(=O)C(C)(C)OC(C)(C)C3=O)c(C)s2)cc1` [Compound T67], the pest or weed control at 250 g/ha came to 0% in [1]; 0% in test [2]; 0% with Avena fatua (AVEFA) [3]; 90% in test [4]; 70% with Setaria faberi (SETFA) [5].
With `Cc1cc(Cl)ccc1-c1nc(C2C(=O)C(C)(C)C(=O)C(C)(C)C2=O)c(C)s1` [Compound T44], the pest or weed control at 250 g/ha in test [6] came out at 0%; in test [7] it was 0%; with Avena fatua (AVEFA) [8], 0%; in test [9], 30%; in the test on Setaria faberi (SETFA) [10], 0%.
In the case of `Cc1sc(-c2ccc(Cl)cc2)cc1C1C(=O)C(C)(C)C(=O)C(C)(C)C1=O` [Compound T5], the pest or weed control at 250 g/ha amounted to 40% in test [1]; 0% in test [2]; 0% in the test on Avena fatua (AVEFA) [3]; 70% in test [4]; 50% with Setaria faberi (SETFA) [5].
`Cc1sc(-c2ccc(F)cc2)cc1C1C(=O)C(C)(C)C(=O)C(C)(C)C1=O` [Compound T25]: the pest or weed control at 250 g/ha in test [1] worked out at 0%; in test [2], 0%; in the test on Avena fatua (AVEFA) [3], 0%; in test [4], 20%; in the test with Setaria faberi (SETFA) [5] it was 20%.
On to `Cc1nc(-c2ccc(Cl)cc2)sc1C1C(=O)C(C)(C)OC(C)(C)C1=O` [Compound T66], for which the pest or weed control at 250 g/ha in [1] came out at 70%; in test [2], 0%; with Avena fatua (AVEFA) [3], 40%; in test [4], 90%; in the test with Setaria faberi (SETFA) [5] it was 80%.
